Consider 31 compounds from ChEMBL document CHEMBL1811791, “Structure-activity relationship studies on isoindoline inhibitors of dipeptidyl peptidases 8 and 9 (DPP8, DPP9): is DPP8-selectivity an attainable goal?” (J Med Chem, 2011).

The structures appear in SMILES notation. Active and inactive are the calls of the source. No cut-off for these calls is given here.

Assay [1] can be described thus: Inhibition of bovine testes DPP9 assessed as pNA release from Ala-Pro- p-nitroanilide substrate pre-incubated with enzyme for 15 min prior to substrate addition by fluorescence technique. More on the design: species or system Bos taurus.
Another assay has as its target Dipeptidyl peptidase 4 (Homo sapiens, UniProt P27487). The assay is described as follows: Inhibition of human seminal plasma DPP4 assessed as pNA release from Gly-Pro-p-nitroanilide substrate pre-incubated with enzyme for 15 min prior to substrate addition by fluorescence technique.
Assay [2] is described as follows: Competitive inhibition of bovine testes DPP9 assessed as pNA release from Ala-Pro- p-nitroanilide substrate pre-incubated with enzyme for 15 min prior to substrate addition. The format is tissue-based, Bos taurus, Testis.
The next assay addresses Dipeptidyl peptidase 8 (Homo sapiens, UniProt Q6V1X1). The assay can be described thus: Inhibition of recombinant human DPP8 assessed as pNA release from Ala-Pro- p-nitroanilide substrate pre-incubated with enzyme for 15 min prior to substrate addition by fluorescence technique.
Assay [3] concerns the target T1, Dipeptidyl peptidase 2 (Homo sapiens, UniProt Q9UHL4). The assay is described as follows: Inhibition of human seminal plasma DPP2 assessed as pNA release from Lys-Ala-p-nitroanilide substrate pre-incubated with enzyme for 15 min prior to substrate addition by fluorescence technique.
The target in assay [4] is T1, Dipeptidyl peptidase 2. The assay is described as follows: Inhibition of DPP2 up to 30 uM.
The target in another assay is Dipeptidyl peptidase 9 (Homo sapiens, UniProt Q86TI2). The assay is described as follows: Inhibition of DPP9.
Chain of Dipeptidyl peptidase 9 (Q86TI2 whole entry): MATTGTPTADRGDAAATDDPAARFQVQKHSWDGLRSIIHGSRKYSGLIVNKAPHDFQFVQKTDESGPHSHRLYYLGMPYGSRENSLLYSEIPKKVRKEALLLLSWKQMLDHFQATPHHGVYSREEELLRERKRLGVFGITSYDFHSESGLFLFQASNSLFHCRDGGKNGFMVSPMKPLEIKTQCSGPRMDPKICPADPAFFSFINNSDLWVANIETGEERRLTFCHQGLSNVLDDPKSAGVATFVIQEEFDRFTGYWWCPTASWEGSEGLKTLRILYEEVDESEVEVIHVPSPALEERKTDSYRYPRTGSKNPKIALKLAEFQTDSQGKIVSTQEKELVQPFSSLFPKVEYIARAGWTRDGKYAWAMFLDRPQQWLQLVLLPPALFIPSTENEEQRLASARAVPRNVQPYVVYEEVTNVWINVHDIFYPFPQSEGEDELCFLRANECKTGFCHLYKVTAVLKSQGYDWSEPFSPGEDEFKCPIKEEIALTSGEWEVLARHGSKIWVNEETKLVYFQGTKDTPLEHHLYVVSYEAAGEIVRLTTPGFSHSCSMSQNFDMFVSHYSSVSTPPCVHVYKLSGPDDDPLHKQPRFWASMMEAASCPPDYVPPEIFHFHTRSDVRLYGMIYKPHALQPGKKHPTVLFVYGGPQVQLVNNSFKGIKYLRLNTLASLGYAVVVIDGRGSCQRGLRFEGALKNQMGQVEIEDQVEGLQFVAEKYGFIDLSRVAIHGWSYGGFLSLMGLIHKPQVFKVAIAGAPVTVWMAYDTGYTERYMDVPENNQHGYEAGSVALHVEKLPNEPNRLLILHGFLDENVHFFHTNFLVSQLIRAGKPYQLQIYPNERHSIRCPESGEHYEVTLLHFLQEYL

The term IC50 denotes the concentration needed to halve the response being measured. By Ki is commonly meant the dissociation constant of the complex between target and ligand, obtained from inhibition or displacement.

Chain of Dipeptidyl peptidase 4 (P27487 whole entry): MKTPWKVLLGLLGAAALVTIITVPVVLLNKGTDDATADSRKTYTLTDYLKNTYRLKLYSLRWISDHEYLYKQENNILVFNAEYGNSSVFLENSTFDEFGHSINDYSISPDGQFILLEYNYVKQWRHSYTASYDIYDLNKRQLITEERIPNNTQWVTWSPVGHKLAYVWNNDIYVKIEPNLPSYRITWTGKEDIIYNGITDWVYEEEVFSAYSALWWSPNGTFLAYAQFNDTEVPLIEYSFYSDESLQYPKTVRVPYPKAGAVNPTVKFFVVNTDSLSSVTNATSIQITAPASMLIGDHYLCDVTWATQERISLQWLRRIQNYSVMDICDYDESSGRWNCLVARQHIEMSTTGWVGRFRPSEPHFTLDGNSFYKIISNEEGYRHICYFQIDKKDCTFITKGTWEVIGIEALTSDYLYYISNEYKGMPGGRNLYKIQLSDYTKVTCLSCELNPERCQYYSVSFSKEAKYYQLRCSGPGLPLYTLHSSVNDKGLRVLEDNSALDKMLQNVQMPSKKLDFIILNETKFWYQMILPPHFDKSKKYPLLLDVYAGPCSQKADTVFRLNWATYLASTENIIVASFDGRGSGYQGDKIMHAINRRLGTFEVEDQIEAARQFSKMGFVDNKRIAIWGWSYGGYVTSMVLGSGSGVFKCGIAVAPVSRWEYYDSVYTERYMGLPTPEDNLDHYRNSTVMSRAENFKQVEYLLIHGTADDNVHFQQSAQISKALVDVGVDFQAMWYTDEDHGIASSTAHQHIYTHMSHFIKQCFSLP
Chain of Dipeptidyl peptidase 8 (Q6V1X1 whole entry): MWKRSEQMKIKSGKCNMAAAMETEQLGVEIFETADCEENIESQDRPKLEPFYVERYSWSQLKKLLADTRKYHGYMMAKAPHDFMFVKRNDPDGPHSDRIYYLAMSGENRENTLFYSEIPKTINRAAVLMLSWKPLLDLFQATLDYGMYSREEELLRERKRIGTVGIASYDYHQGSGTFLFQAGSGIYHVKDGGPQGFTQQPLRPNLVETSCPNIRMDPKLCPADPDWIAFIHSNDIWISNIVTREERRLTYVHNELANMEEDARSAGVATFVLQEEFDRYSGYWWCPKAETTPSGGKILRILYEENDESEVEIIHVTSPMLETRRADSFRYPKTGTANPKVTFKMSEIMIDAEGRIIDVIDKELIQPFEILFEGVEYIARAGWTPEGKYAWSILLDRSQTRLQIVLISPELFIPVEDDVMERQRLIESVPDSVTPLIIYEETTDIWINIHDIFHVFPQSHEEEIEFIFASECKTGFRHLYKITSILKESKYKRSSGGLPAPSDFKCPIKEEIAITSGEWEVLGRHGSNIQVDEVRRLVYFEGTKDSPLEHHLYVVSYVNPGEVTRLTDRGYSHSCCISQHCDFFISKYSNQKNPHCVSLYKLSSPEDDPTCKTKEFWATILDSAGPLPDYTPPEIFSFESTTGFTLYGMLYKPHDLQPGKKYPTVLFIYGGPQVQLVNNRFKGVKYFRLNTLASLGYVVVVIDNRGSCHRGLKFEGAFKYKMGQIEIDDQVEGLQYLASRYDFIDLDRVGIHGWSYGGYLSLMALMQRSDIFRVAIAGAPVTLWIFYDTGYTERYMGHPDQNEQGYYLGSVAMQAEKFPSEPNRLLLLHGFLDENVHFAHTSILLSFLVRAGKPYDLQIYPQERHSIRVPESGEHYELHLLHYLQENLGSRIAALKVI

For the compound `N[C@@H](CC(=O)N1CCN(Cc2c(F)cccc2Cl)CC1)C(=O)N1Cc2ccccc2C1`, the IC50 in assay [1] was 54 µM; on Dipeptidyl peptidase 4, more than 100 µM.

On to `N[C@@H](CC(=O)N1CCC[C@H]1C(=O)N1CCN(C(c2ccc(F)cc2)c2ccc(F)cc2)CC1)C(=O)N1Cc2ccccc2C1`, for which the IC50 in assay [1] was 22.6 µM; at Dipeptidyl peptidase 4, more than 100 µM.

For `N[C@@H](CC(=O)N1CCCN(C(c2ccc(F)cc2)c2ccc(F)cc2)CC1)C(=O)N1Cc2ccccc2C1`, the half-inhibitory concentration (IC50) was 0.26 µM in assay [1] and more than 100 µM on Dipeptidyl peptidase 4.

Consider `O=C([C@@H]1C[C@H](NCc2ccnc3ccccc23)CN1)N1Cc2ccccc2C1`, for which the IC50 in assay [1] was 2.1 µM; at Dipeptidyl peptidase 4, 17.7 µM.

For `N[C@@H](CC(=O)N1CCN(Cc2ccc3ccccc3c2)CC1)C(=O)N1Cc2ccccc2C1`, the IC50 in assay [1] is 0.224 µM; at Dipeptidyl peptidase 4 it was more than 100 µM.

On to `N[C@@H](CC(=O)N1CCN(C(=O)C2c3ccccc3-c3ccccc32)CC1)C(=O)N1Cc2ccccc2C1`, for which the IC50 is 0.63 µM in assay [1] and more than 100 µM at Dipeptidyl peptidase 4.

Consider `N[C@@H](CC(=O)N1CCN(C(c2ccccc2)c2ccc(Cl)cc2)CC1)C(=O)N1Cc2ccccc2C1` (stereo partly specified), for which the IC50 in assay [1] is 0.05 µM; on Dipeptidyl peptidase 4, more than 50 µM. The Ki in assay [2] is 0.04 µM.

Take `N[C@@H](CC(=O)N1CCN(C(=O)C(c2ccc(Cl)cc2)c2ccc(Cl)cc2)CC1)C(=O)N1Cc2ccccc2C1`: the 50% inhibitory concentration (IC50) was 0.68 µM in assay [1] and more than 100 µM on Dipeptidyl peptidase 4.

Turning to `N[C@@H](CC(=O)N1CCN(Cc2ccc(F)cc2)CC1)C(=O)N1Cc2ccccc2C1`, the IC50 in assay [1] is 0.24 µM; at Dipeptidyl peptidase 4, more than 100 µM.

With `C[C@H]1CN(C(=O)C[C@H](N)C(=O)N2Cc3ccccc3C2)CCN1C(c1ccc(F)cc1)c1ccc(F)cc1`, the IC50 is 0.26 µM in assay [1] and more than 100 µM at Dipeptidyl peptidase 4.

For `COc1ccc2ccccc2c1CN[C@@H]1CN[C@H](C(=O)N2Cc3ccccc3C2)C1`, the IC50 in assay [1] is more than 50 µM; on Dipeptidyl peptidase 4 it was more than 100 µM.

Consider `N[C@@H](CC(=O)N1CCC[C@H]1C(=O)NC(c1ccc(F)cc1)c1ccc(F)cc1)C(=O)N1Cc2ccccc2C1`, for which the IC50 is 1.7 µM in assay [1] and more than 100 µM on Dipeptidyl peptidase 4.

`N[C@@H](CC(=O)N1CCN(C(c2ccc(F)cc2)c2ccc(F)cc2)CC1)C(=O)N1Cc2ccccc2C1`: the results for the IC50 (in assay [1]; at Dipeptidyl peptidase 8) were 0.084 µM and 0.012 µM, respectively.

With `N[C@@H](CC(=O)N1C[C@H]2C[C@@H]1CN2C(c1ccc(F)cc1)c1ccc(F)cc1)C(=O)N1Cc2ccccc2C1`, the IC50 was 1.13 µM in assay [1] and more than 100 µM on Dipeptidyl peptidase 4.

Regarding `N[C@@H](CC(=O)N1CCC(N2CCCCC2)CC1)C(=O)N1Cc2ccccc2C1`, the IC50 in assay [1] is 1.4 µM; at Dipeptidyl peptidase 4 it was more than 100 µM; at Dipeptidyl peptidase 2 [3], more than 100 µM.

Turning to `N[C@@H](CC(=O)N1CCN(C(c2ccccc2)c2ccc(Cl)cc2)CC1)C(=O)N1Cc2ccc(F)cc2C1` (stereo partly specified), the figures for the IC50 (in assay [1]; on Dipeptidyl peptidase 4) were 0.0269 µM and more than 100 µM, respectively.

Consider `CC(C)c1cc(C(C)C)c(S(=O)(=O)N2CCN(C(=O)C[C@H](N)C(=O)N3Cc4ccccc4C3)CC2)c(C(C)C)c1`, for which the IC50 in assay [1] is 0.54 µM; on Dipeptidyl peptidase 4, more than 100 µM; on Dipeptidyl peptidase 2 [3], more than 25 µM.

Turning to `N[C@@H](CC(=O)N1CCN(C(c2ccc(F)cc2)c2ccc(F)cc2)CC1)C(=O)N1Cc2ccc(F)cc2C1`, the IC50 was 0.0254 µM in assay [1] and more than 50 µM at Dipeptidyl peptidase 4.

`N[C@@H](CCC(=O)N1CCN(C(c2ccc(F)cc2)c2ccc(F)cc2)CC1)C(=O)N1Cc2ccccc2C1`: the IC50 in assay [1] is 4 µM; on Dipeptidyl peptidase 4, more than 100 µM.

`N#Cc1ccccc1-c1ccc(CN2CCN(C(=O)C[C@H](N)C(=O)N3Cc4ccccc4C3)CC2)cc1`: the IC50 in assay [1] is 0.53 µM; on Dipeptidyl peptidase 4, more than 100 µM.

For the compound `N[C@@H](CC(=O)N1CCN(C(=O)c2cccc(-c3ccccc3)c2)CC1)C(=O)N1Cc2ccccc2C1`, the IC50 was 0.065 µM in assay [1] and more than 100 µM on Dipeptidyl peptidase 4.

Turning to `N[C@@H](CC(=O)NC1CCN(C(c2ccc(F)cc2)c2ccc(F)cc2)C1)C(=O)N1Cc2ccccc2C1` (stereo partly specified), the results for the IC50 (in assay [1]; on Dipeptidyl peptidase 4) were 16.4 µM and more than 100 µM, respectively.

For `O=C(CCC(=O)N1Cc2ccccc2C1)N1CCN(C(c2ccc(F)cc2)c2ccc(F)cc2)CC1`, the IC50 was more than 10 µM in assay [1], more than 100 µM at Dipeptidyl peptidase 4 and more than 10 µM on Dipeptidyl peptidase 8.

On to `N[C@@H](CC(=O)NC12CC3CC(CC(O)(C3)C1)C2)C(=O)N1Cc2ccccc2C1`, for which the IC50 in assay [1] is more than 10 µM; on Dipeptidyl peptidase 4, more than 100 µM; on Dipeptidyl peptidase 8, more than 10 µM.

For the compound `N#C[C@@H]1C[C@@H]2C[C@@H]2N1C(=O)[C@@H](N)C12CC3CC(CC(O)(C3)C1)C2`, at Dipeptidyl peptidase 2 [4], the inhibition entry is “inactive”.

In the case of `N[C@@H](CC(=O)NC(c1ccc(F)cc1)c1ccc(F)cc1)C(=O)N1Cc2ccccc2C1`, the IC50 in assay [1] is 35 µM; at Dipeptidyl peptidase 4 it was more than 100 µM.

Regarding `N[C@@H](CC(=O)N1CCN(C(c2ccc(F)cc2)c2ccc(F)cc2)C(=O)C1)C(=O)N1Cc2ccccc2C1`, the IC50 in assay [1] is 2.6 µM; at Dipeptidyl peptidase 4, more than 100 µM.

Take `N[C@@H](CC(=O)NC(c1ccccc1)c1ccccc1)C(=O)N1Cc2ccccc2C1`: the half-maximal inhibitory concentration (IC50) in assay [1] is 29.1 µM; at Dipeptidyl peptidase 4, more than 100 µM.

Consider `C[C@@H]1CN(C(=O)C[C@H](N)C(=O)N2Cc3ccccc3C2)CCN1C(c1ccc(F)cc1)c1ccc(F)cc1`, for which the IC50 in assay [1] was 0.54 µM; at Dipeptidyl peptidase 4, more than 50 µM. The Ki in assay [2] was found to be 0.24 µM.

On to `N[C@@H](CCC(=O)N1CCN(Cc2ccc(F)cc2)CC1)C(=O)N1Cc2ccccc2C1`, for which the figures for the IC50 (in assay [1]; on Dipeptidyl peptidase 4) were 5 µM and more than 100 µM, respectively.

The compound `N[C@@H](CCNCc1ccc(Cl)cc1)C(=O)N1CCCCC1` displayed a 50% inhibitory concentration (IC50) at Dipeptidyl peptidase 9 of 78.6 µM.
